Reference: patent EP0623672A1, “New alkaline serine protease of Paecilomyces lilacinus” (RESEARCH INSTITUTE FOR PLANT PROTECTION, priority 1993, dated 1994)
Where two headings read alike, the source gives them in different places.

Key:
[1] = molecular target: serine protease of Paecilomyces lilacinus (Purpureocillium lilacinum, UniProt Q01471); type: biochemical
Description: (§1) Protease activity was determined by a modified procedure of Rinderknecht et al. (1968). Ten mg of Hide Powder Azure (Sigma) was incubated in 50 mM Sodium acetate buffer pH 6.0 with the sample in a final volume of 3 ml in small glass containers. Incubation was at 37 °C in a shaking waterbath (110 strokes(min) till the solution turned blue (between 5 and 30 minutes). Following incubation the samples were put on ice and centrifuged in 1.5 ml Eppendorf cups for 5 minutes at 14.000 g. The absorbance of the supernatant was measured at 595 nm on a Uvikon 940 spectrophotometer. Protease activity of the sample was measured in duplo, averaged and expressed as A₅₉₅ ml⁻¹hr⁻¹ after correction for the blank (Milli Q water).
Several protease inhibitors, SH reducing agents and metal ions were tested on the proteolytic activity of the protease: PMSF, E64, 1.10-phenantroline, pepstatine (Sigma); EDTA, cystein MgCl₂ and CaCl₂ (Merck); DTT (BioRad). The purified enzyme was incubated for 40 minutes at 4 °C with inhibitor. After incubation the protease-activity was determined as previously described. Final inhibitor concentration was 1 mM. Protease activity in the absence of inhibitor was expressed as 100 %.

[2] = test system: proteolytic activity in the culture filtrate; test: Inhibition of proteolytic activity in the culture filtrate by protease inhibitors; type: biochemical, Paecilomyces lilacinus
Description: as §1
To identify the nature of the protease the proteolytic activity in the culture filtrate was inhibited with several protease inhibitors. […] Purification of the serine protease(s) was first performed with Benzamidine-Sepharose, an affinity resin for serine proteases of class I (Pharmacia).

Paecilomyces lilacinus = test: Catabolite repression of protease induction in liquid culture; type: cell-based; conditions: glucose 0.3 % added each day to MNNC (chitin as substrate); mycelium as inoculum; Figure 2
Description: In one experiment mycelium of Paecilomyces lilacinus was used as inoculum. Mycelium was obtained by centrifuging a 6 day old culture of conidia of P. lilacinus in MMNG for 45 minutes at 9000 g. Cultures were grown in a shaking waterbath for several days at 30 °C and 125 strokes per minute. Culture filtrates were obtained by centrifuging cultures for 45 min at 9000 g. Supernatants were concentrated using an Amicon (YM-10 filter) and clarified through a 0.22 µm-filter (Schleicher & Schuell). Pellets were freeze dried and the weigth of the mycelium was measured.
as §1, with “Ten mg of Hide Powder Azure (Sigma) was incubated in 50 mM Sodium acetate buffer pH 6.0 with the sample in a final volume of 3 ml in small glass containers.” left out
To see whether the fungus used glucose as carbon sourece, glucose concentrations were determined in the culture filtrate, of the fungus in MNNG (Figure 1). […]

[3] = 1 mM final, 40 minutes at 4 °C, Figure 7

Chain of serine protease of Paecilomyces lilacinus (Q01471 entry or part of it): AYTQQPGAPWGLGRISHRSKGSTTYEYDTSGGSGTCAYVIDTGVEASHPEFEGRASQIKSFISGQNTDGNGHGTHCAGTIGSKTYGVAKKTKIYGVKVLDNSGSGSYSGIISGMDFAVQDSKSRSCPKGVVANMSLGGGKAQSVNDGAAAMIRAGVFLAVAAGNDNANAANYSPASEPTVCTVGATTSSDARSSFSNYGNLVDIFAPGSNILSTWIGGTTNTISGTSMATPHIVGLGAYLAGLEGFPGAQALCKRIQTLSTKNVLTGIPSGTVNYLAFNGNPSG

| Molecule | effect on the proteolytic activity of the purified protease [1, 3] | further results |
| --- | --- | --- |
| O=C(O)CN(CCN(CC(=O)O)CC(=O)O)CC(=O)O [EDTA] |  | effect on the proteolytic activity of the purified protease [1]: enhanced its activity |
| N[C@@H](CS)C(=O)O [cystein] | did not influence its activity |  |
| MgCl₂ [Mg⁺⁺] | lowered the protease activity slightly |  |
| O=S(=O)(F)Cc1ccccc1 [PMSF] |  | inhibition of the proteolytic activity in the culture filtrate [2]: most of the protease activity present in the medium was inhibited; inhibition of the activity of the purified protease ([1]; inhibitor 1 mM final, 40 minutes at 4 °C, activity without inhibitor = 100 %, Figure 7): 100% |
| OC[C@H]1OC(O)[C@H](O)[C@@H](O)[C@@H]1O (some centres unmarked) [glucose] |  | induction of protease activity (Paecilomyces lilacinus): repressed |
| OC(CS)C(O)CS (centres unmarked) [DTT] | did not influence its activity |  |
| CaCl₂ [Ca⁺⁺] | lowered the protease activity slightly |  |
